According to PubChem BioAssay AID1963847 (Molecular Pharmacology Branch, DTP, NCI, 2024):

Test system: 415267-285-R-J2-PDC complex spheroid viability
Assay: Anticancer human tumor 415267-285-R-J2-PDC patient-derived breast carcinoma cell line growth inhibition [POLQ]
Conditions: for IC50: curve of first compound; for viability, T/C: stronger effect = lower value
Method in brief: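 Growth inhibition in 3D: complex spheroids (tumor PDC, HUVEC, MSC) treated with POLQ inhibitor combinations; where Cmax unknown, highest tested concentration 10 microM, except SN-38 at 1 microM.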

[1] = second compound 0.0316 µM, first compound 0.0316 µM
[2] = second compound 0.0316 µM, first compound 0.1 µM
[3] = second compound 0.1 µM, first compound 0.0316 µM
[4] = second compound 0.1 µM, first compound 0.1 µM
[5] = second compound 0.316 µM, first compound 0.0316 µM
[6] = second compound 0.316 µM, first compound 0.1 µM
[7] = second compound 1 µM, first compound 0.0316 µM
[8] = second compound 1 µM, first compound 0.1 µM
[9] = second compound 3.16 µM, first compound 0.0316 µM
[10] = second compound 3.16 µM, first compound 0.1 µM
[11] = second compound 10 µM, first compound 0.0316 µM
[12] = second compound 10 µM, first compound 0.1 µM
[13] = second compound 0.0316 µM, first compound 0.316 µM
[14] = second compound 0.0316 µM, first compound 1 µM
[15] = second compound 0.0316 µM, first compound 3.16 µM
[16] = second compound 0.0316 µM, first compound 10 µM
[17] = second compound 0.1 µM, first compound 0.316 µM
[18] = second compound 0.1 µM, first compound 1 µM
[19] = second compound 0.1 µM, first compound 3.16 µM
[20] = second compound 0.1 µM, first compound 10 µM
[21] = second compound 0.316 µM, first compound 0.316 µM
[22] = second compound 0.316 µM, first compound 1 µM
[23] = second compound 0.316 µM, first compound 3.16 µM
[24] = second compound 0.316 µM, first compound 10 µM
[25] = second compound 1 µM, first compound 0.316 µM
[26] = second compound 1 µM, first compound 1 µM
[27] = second compound 1 µM, first compound 3.16 µM
[28] = second compound 1 µM, first compound 10 µM
[29] = second compound 3.16 µM, first compound 0.316 µM
[30] = second compound 3.16 µM, first compound 1 µM
[31] = second compound 3.16 µM, first compound 3.16 µM
[32] = second compound 3.16 µM, first compound 10 µM
[33] = second compound 10 µM, first compound 0.316 µM
[34] = second compound 10 µM, first compound 1 µM
[35] = second compound 10 µM, first compound 3.16 µM
[36] = second compound 10 µM, first compound 10 µM
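Also: spheroids exposed to compounds for one week before readout.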
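For viability, T/C in this document: luminescence used as stand-in measure of viable cells; 100% = DMSO vehicle control viability.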

SMILES: CC[C@@]1(O)C(=O)OCc2c1cc1n(c2=O)Cc2cc3c(CN(C)C)c(O)ccc3nc2-1 + COC1C(OC(N)=O)C(O)C(Oc2ccc3c(O)c(NC(=O)c4ccc(O)c(CC=C(C)C)c4)c(=O)oc3c2C)OC1(C)C
- IC50 (second compound 0.0316 µM): 0.0185 µM
- IC50 (second compound 0.1 µM): 0.0226 µM
- IC50 (second compound 0.316 µM): 0.022 µM
- IC50 (second compound 1 µM): 0.0193 µM
- IC50 (second compound 3.16 µM): 0.0194 µM
- IC50 (second compound 10 µM): 0.0196 µM
- viability, T/C (second compound 0.0316 µM, first compound 0.000316 µM): 101%
- viability, T/C (second compound 0.0316 µM, first compound 0.001 µM): 99%
- viability, T/C (second compound 0.0316 µM, first compound 0.00316 µM): 101%
- viability, T/C (second compound 0.0316 µM, first compound 0.01 µM): 82%
- viability, T/C [1]: 22.1%
- viability, T/C [2]: 9.06%
- viability, T/C (second compound 0.1 µM, first compound 0.000316 µM): 94%
- viability, T/C (second compound 0.1 µM, first compound 0.001 µM): 98.6%
- viability, T/C (second compound 0.1 µM, first compound 0.00316 µM): 97.4%
- viability, T/C (second compound 0.1 µM, first compound 0.01 µM): 83.3%
- viability, T/C [3]: 36.1%
- viability, T/C [4]: 8.11%
- viability, T/C (second compound 0.316 µM, first compound 0.000316 µM): 90%
- viability, T/C (second compound 0.316 µM, first compound 0.001 µM): 101%
- viability, T/C (second compound 0.316 µM, first compound 0.00316 µM): 103%
- viability, T/C (second compound 0.316 µM, first compound 0.01 µM): 107%
- viability, T/C [5]: 26.7%
- viability, T/C [6]: 10.8%
- viability, T/C (second compound 1 µM, first compound 0.000316 µM): 93.6%
- viability, T/C (second compound 1 µM, first compound 0.001 µM): 99.7%
- viability, T/C (second compound 1 µM, first compound 0.00316 µM): 88.6%
- viability, T/C (second compound 1 µM, first compound 0.01 µM): 84.6%
- viability, T/C [7]: 24.1%
- viability, T/C [8]: 8.54%
- viability, T/C (second compound 3.16 µM, first compound 0.000316 µM): 98.4%
- viability, T/C (second compound 3.16 µM, first compound 0.001 µM): 97.4%
- viability, T/C (second compound 3.16 µM, first compound 0.00316 µM): 105%
- viability, T/C (second compound 3.16 µM, first compound 0.01 µM): 94%
- viability, T/C [9]: 17.8%
- viability, T/C [10]: 7.35%
- viability, T/C (second compound 10 µM, first compound 0.000316 µM): 103%
- viability, T/C (second compound 10 µM, first compound 0.001 µM): 107%
- viability, T/C (second compound 10 µM, first compound 0.00316 µM): 107%
- viability, T/C (second compound 10 µM, first compound 0.01 µM): 85.8%
- viability, T/C [11]: 24.6%
- viability, T/C [12]: 7.99%

SMILES: CCc1cc2c(N3CCc4c(cc(Cn5ccnc5)cc4-c4cn(C)nc4C(F)(F)F)C3=O)cc(C)nc2c(OC)n1 + Cc1cccc(N(C)C(=O)C2C(O)CCN2c2nc(C)cc(C(F)(F)F)c2C#N)c1
- IC50 (second compound 0.0316 µM): > 10 µM
- IC50 (second compound 0.1 µM): > 10 µM
- IC50 (second compound 0.316 µM): > 10 µM
- IC50 (second compound 1 µM): > 10 µM
- IC50 (second compound 3.16 µM): > 10 µM
- IC50 (second compound 10 µM): > 10 µM
- viability, T/C [1]: 92.6%
- viability, T/C [2]: 98.2%
- viability, T/C [13]: 82%
- viability, T/C [14]: 91.5%
- viability, T/C [15]: 90%
- viability, T/C [16]: 77.1%
- viability, T/C [3]: 93%
- viability, T/C [4]: 89.3%
- viability, T/C [17]: 83%
- viability, T/C [18]: 89.8%
- viability, T/C [19]: 81%
- viability, T/C [20]: 71.7%
- viability, T/C [5]: 97.7%
- viability, T/C [6]: 91.4%
- viability, T/C [21]: 95.1%
- viability, T/C [22]: 89.7%
- viability, T/C [23]: 85.1%
- viability, T/C [24]: 80.2%
- viability, T/C [7]: 102%
- viability, T/C [8]: 81.4%
- viability, T/C [25]: 84.5%
- viability, T/C [26]: 91.7%
- viability, T/C [27]: 88.7%
- viability, T/C [28]: 74.7%
- viability, T/C [9]: 92.3%
- viability, T/C [10]: 99.7%
- viability, T/C [29]: 90.7%
- viability, T/C [30]: 89.8%
- viability, T/C [31]: 84.8%
- viability, T/C [32]: 87.9%
- viability, T/C [11]: 90.3%
- viability, T/C [12]: 95.7%
- viability, T/C [33]: 89.2%
- viability, T/C [34]: 91.7%
- viability, T/C [35]: 81.2%
- viability, T/C [36]: 81.7%

SMILES: C#Cc1c(F)ccc2cc(O)cc(-c3ncc4c(N5CC6CCC(C5)N6)nc(OCC56CCCN5CC(F)C6)nc4c3F)c12 (stereo unspecified) + Nc1ccc(C#CCN(C(=O)Cc2ncc(C(F)(F)F)cc2C(F)(F)F)c2ccc(F)cc2)nn1
- IC50 (second compound 0.0316 µM): > 10 µM
- IC50 (second compound 0.1 µM): > 10 µM
- IC50 (second compound 0.316 µM): > 10 µM
- IC50 (second compound 1 µM): > 10 µM
- IC50 (second compound 3.16 µM): > 10 µM
- IC50 (second compound 10 µM): > 10 µM
- viability, T/C [1]: 105%
- viability, T/C [2]: 110%
- viability, T/C [13]: 84%
- viability, T/C [14]: 101%
- viability, T/C [15]: 97%
- viability, T/C [16]: 99.5%
- viability, T/C [3]: 100%
- viability, T/C [4]: 96%
- viability, T/C [17]: 94.4%
- viability, T/C [18]: 98.6%
- viability, T/C [19]: 97.3%
- viability, T/C [20]: 92.3%
- viability, T/C [5]: 114%
- viability, T/C [6]: 110%
- viability, T/C [21]: 113%
- viability, T/C [22]: 111%
- viability, T/C [23]: 98.5%
- viability, T/C [24]: 102%
- viability, T/C [7]: 105%
- viability, T/C [8]: 102%
- viability, T/C [25]: 95%
- viability, T/C [26]: 112%
- viability, T/C [27]: 96.1%
- viability, T/C [28]: 105%
- viability, T/C [9]: 113%
- viability, T/C [10]: 106%
- viability, T/C [29]: 105%
- viability, T/C [30]: 106%
- viability, T/C [31]: 115%
- viability, T/C [32]: 111%
- viability, T/C [11]: 97.7%
- viability, T/C [12]: 103%
- viability, T/C [33]: 102%
- viability, T/C [34]: 96.4%
- viability, T/C [35]: 102%
- viability, T/C [36]: 116%
